We go through 1 molecule from patent US20220323454A1, “PHENOTHIAZINES AND THEIR DERIVATIVES FOR USE AS A MEDICAMENT” (Guangzhou Virotech Pharmaceutical Co., Ltd., priority 2019, published 2022).

Assay [1] relates to Jurkat-PD-1-NFAT-LUC cells. The assay is described as follows: IL-2 secretion by Jurkat-PD-1-NFAT-LUC cells co-cultured with Raji-PD-L1 cells (ELISA). The note with it: 6 hours, FIG. 1D. The format is cell-based, human. The protocol: (1) Jurkat cells were used to construct a stable cell line expressing PD-1. The pCAGin-PD-1 plasmid was electroporated into Jurkat cells, which were then screened with 900 μg/mL G418 antibiotic and flow-sorted for single clones. Jurkat-PD-1 cells were then electroporated into a DNA fragment that controls the luciferase gene through the NFAT-binding site (referred to as NFAT-LUC). A single clone was then flow-sorted and named clone 5. Using this cell, the expression level of IL-2 can be measured by the activity of luciferase. Raji cells stably expressing PD-L1 were constructed, and the pCDNA-PD-L1 plasmid was electroporated into the Raji cells, followed by screening with 2 μg/mL puromycin, and then flow-sorted single clones and named clone 1.
(3) A 96-well plate was coated with 10 μg/mL CD3 antibody/10 μg/mL CD28 antibody overnight at 4° C. and excess antibody was washed off with PBS. Raji cells or Raji-PD-L1 cells were co-cultured with Jurkat-PD-1-NFAT-LUC cells at a ratio of 1:1, or to a mixture of Raji-PD-L1 cells and Jurkat-PD-1-NFAT-LUC cells at a ratio of 1:1 was added 1 μM MTC or 10 μg/mL PD1 antibody for co-culture; after 6 hours of co-culture, the secretion of IL-2 in the supernatant was measured by ELISA.

Another assay concerns B16-OVA cells. The assay is described as follows: CTL killing of IFN-γ-treated B16-OVA melanoma cells (microscope). The format is cell-based, mouse. The procedure:
(3) Melanoma cells B16-OVA (B16 cells expressing OVA gene) were treated with 10 μg/mL IFN-γ for 24 hours, and then mixed with CTL cells at a ratio of 1:5 and co-cultured for 4 hours. Cells were treated with 1 μM MTC. B16-OVA cells treated with DMSO or MTC only (without IFN-γ treatment) were used as control. The apoptosis of B16-OVA was observed by microscope, and then the killing ability of CTL cells to target cells was assessed.
(§1) (4) The B16-OVA group received no treatment, and the medium was replaced with water in the Water group. The other groups were treated with 10 μg/mL IFNγ. After 24 hours, except for the B16-OVA group, each group was co-cultured with CTL cells at a ratio of 1:5 for 4 hours, and treated with MTC […], LMT (1 μM) or anti-PD1 (PD-1 antibody, 10 μg/mL, Nivolumab, BMS). The death of B16-OVA in each group was observed by microscope, and then the killing ability of CTL cells to target cells was assessed. […] The IFN-γ+MTC group and the IFN-γ+LMT group were treated with 10 μg/mL IFN-γ for 24 hours. The cells were then mixed with CTL cells at a ratio of 1:5, co-cultured for 4 hours and treated with MTC (1 μM) or LMT (1 μM). The MTC and LMT groups were treated with MTC (10 μM) or LMT (10 μM) only. The killing ability against target cells was observed.

The next assay deals with B16-WT cells. The assay is described as follows: Killing of B16-WT melanoma cells, with or without CTL cells. In kind it is cell-based, mouse. Conditions: FIG. 4E. The protocol: as §1
Assay [2] concerns EGFR-L858R mutant orthotopic tumors. The assay is described as follows: EGFR-L858R transgenic mouse orthotopic lung cancer model (CT). In kind it is in vivo. Conditions: FIG. 6B. The text has this: The advantages of xenograft models are that the antigenic epitopes recognized by T cells are very clear, and the system is pure for elucidation. The disadvantage is that this model cannot simulate the complex carcinogenesis, tumorigenesis, and interactions of tumor and stromal cells of the primary cancer. Therefore, murine xenograft models are less predictive of drug effects in human patients. Therefore, in this example, the effect of the MTC of the present invention in treating tumors was further investigated by using a transgenic lung cancer mouse model. […] One to two months later, lung cancer in mice could be detected and recorded by computed tomography (CT). […]
(2) The size and severity of the tumors was recorded by computed tomography (CT).
(3) The tumor-bearing mice were randomly divided into groups and given placebo (HKI solution) and MTC (40 mg/kg/day in HKI solution). After 2 weeks of treatment, tumor sizes were recorded by CT again.
Mice were intraperitoneally injected with CD8 antibody […] one week in advance to deplete CD8+ cells in the tumor-bearing mice. The mice were then co-treated with MTC and CD8 antibody for 2 weeks, and the tumor size was recorded by CT.

For another assay, the target named is T1, PD-1 recruitment of SHP2 (Homo sapiens, UniProt Q06124+Q15116).
T1 construct: expressed in transfected cells
The assay can be described thus: Co-IP of PD-1-Flag and SHP2 in 293T cells. Conditions: 293T co-transfected with PD-1-Flag and SHP2 plasmids, MTC at different concentrations; FIG. 7C. In kind it is cell-based. The protocol: (3) The PD-1-Flag plasmid and SHP2 plasmid were co-transfected in 293T cells, and the cells were then treated with MTC at different concentrations. The ability of PD-1 to recruit SHP2 was detected by Co-IP.

A further assay concerns OT-1 CTL cells. The assay is described as follows: CTL cell division under PD-L1 protein inhibition (CFSE, flow cytometry). In kind it is cell-based. Conditions: 100 nM MTC; 10 nM SIINFEKL, 10 nM IL-2, 10 μg/mL mouse PD-L1 protein; 24, 48, 72 hours; FIG. 2B. The procedure:
(1) Preparation of CTL cells: The spleens of OT1 mice were obtained, ground and added with red blood cell lysate, to prepare single-cell suspension. The culture medium was 1640+10% FBS+50 μM βME+10 nM IL-2. Cell density was adjusted to about 2-4 million/mL. The cells were added with 10 nM OVA257-264, and cultured in a cell incubator at 37° C., 5% CO2. From the day of CTL preparation, cells were stained with FITC-labeled PD-1 antibody every day, and the changes of PD-1 expression on the cell surfaces were detected by flow cytometry.
(2) The CTL cells were labeled with 5 nM CFSE, stimulated by 10 nM SIINFEKL and 10 nM IL-2, and added with 10 μg/mL mouse PD-L1 protein. The experimental group was also added with 100 nM MTC and stimulated for 24, 48, and 72 hours. The effects of PD-L1 protein and MTC on CTL cell division were observed by flow cytometry.

T1 sequence (Q15116 25-288): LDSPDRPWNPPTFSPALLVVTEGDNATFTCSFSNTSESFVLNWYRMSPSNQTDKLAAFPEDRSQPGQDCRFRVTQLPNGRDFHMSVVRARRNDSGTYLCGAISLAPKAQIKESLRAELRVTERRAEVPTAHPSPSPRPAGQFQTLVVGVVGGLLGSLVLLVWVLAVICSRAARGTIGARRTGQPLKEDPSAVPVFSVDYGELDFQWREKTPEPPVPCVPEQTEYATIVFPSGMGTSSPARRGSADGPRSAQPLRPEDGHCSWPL
T1 sequence (Q06124 whole entry): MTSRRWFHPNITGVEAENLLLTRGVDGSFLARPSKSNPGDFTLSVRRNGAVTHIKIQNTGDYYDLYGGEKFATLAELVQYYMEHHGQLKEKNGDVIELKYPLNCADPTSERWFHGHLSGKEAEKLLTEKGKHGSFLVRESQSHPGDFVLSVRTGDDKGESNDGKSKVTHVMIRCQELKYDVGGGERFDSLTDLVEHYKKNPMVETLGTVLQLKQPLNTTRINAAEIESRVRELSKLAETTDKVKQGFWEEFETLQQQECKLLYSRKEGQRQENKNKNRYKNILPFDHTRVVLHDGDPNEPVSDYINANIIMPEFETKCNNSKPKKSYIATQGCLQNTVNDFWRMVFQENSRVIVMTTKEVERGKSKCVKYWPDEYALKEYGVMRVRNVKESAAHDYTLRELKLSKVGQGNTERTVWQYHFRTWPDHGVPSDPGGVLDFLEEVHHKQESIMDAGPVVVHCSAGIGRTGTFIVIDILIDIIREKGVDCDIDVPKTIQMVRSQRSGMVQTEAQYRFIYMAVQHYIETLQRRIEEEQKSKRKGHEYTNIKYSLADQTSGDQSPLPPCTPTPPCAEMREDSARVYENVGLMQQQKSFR

Regarding `CN(C)c1ccc2nc3ccc(N(C)C)cc3[s+]c2c1` [MTC, 3,7-bis(dimethylamino)-phenothiazine-5-ium chloride], in assay [1] (1 μM MTC vs 10 μg/mL PD1 antibody), the “function of Jurkat cells inhibited by PD-1, compared with the PD-1 antibody group” value is on record as “significantly improved”. The “secretion of IL-2 in the supernatant” value in assay [1] (Raji-PD-L1 : Jurkat-PD-1-NFAT-LUC 1:1, CD3/CD28 antibody coated plate, 1 μM MTC or 10 μg/mL PD1 antibody) was “sharply enhanced”. Further, the “killing effects of CTL cells to B16-OVA cells” value with B16-OVA cells (B16-OVA treated with 10 μg/mL IFNγ 24 hours, B16-OVA : CTL 1:5, 4 hours, MTC (1 µM), LMT (1 μM), FIGS. 4C and 4D) is recorded as “significantly enhanced”. Moreover, the “combined killing effect with CTL cells on B16-OVA compared with the anti-PD-1 group” value in the assay with B16-OVA cells (MTC (1 µM) or LMT (1 μM) vs anti-PD1 10 μg/mL, FIG. 4D) is “significantly stronger than that of the anti-PD-1 group”. Also, the “killing effect on B16-WT cells, combination with CTL cells” value in the assay on B16-WT cells (IFN-γ 10 μg/mL 24 hours, B16-WT : CTL 1:5, 4 hours, MTC (1 μM) or LMT (1 μM)) is given as “no killing effect”. Besides, the “killing effect on B16-WT cells, compound only” value with B16-WT cells (MTC (10 μM) or LMT (10 μM) only) is recorded as “no killing effect”. Further, in assay [2] (CD8 antibody one week in advance, then MTC and CD8 antibody for 2 weeks), the “tumor growth in the case of CD8+ T cell depletion” value was “not inhibited”. The “tumors by CT imaging” value in assay [2] (MTC 40 mg/kg/day in HKI solution, 14 days) is given as “basically cleared”. Further, the “binding of PD-1 to SHP2 (Co-IP)” value on PD-1 recruitment of SHP2 was “prevented the binding of PD-1 to SHP2”. In addition, in the assay with OT-1 CTL cells, the “CTL cell division inhibited by PD-L1 protein” value is listed as “reversed the inhibition”.
